Measurements taken from patent US7714134B2, “Compounds and use of tetrahydropyridothiophenes” (4SC AG, priority 2004, dated 2010).

Tests used:
[1] = system: RKO (RKOp27) human colon adenocarcinoma cells; assay: Alamar Blue cell viability assay, anti-proliferative/cytotoxic activity, RKO p27 uninduced; format: cell-based; details: RKOp27, 72 h, proliferating cells, absence of the inducer Ponasterone A, 72 hours incubation
Procedure: The anti-proliferative/cytotoxic activity of the compounds described herein, can be tested on subdlones of RKO (RKOp27) human colon adenocarcinoma cells (Schmidt et al., Oncogene 19, 2423-2429; 2000) using the Alamar Blue cell viability assay (described in O'Brien et al. Eur J Biochem 267, 5421-5426, 2000). The compounds are dissolved as 20 mM solutions in dimethylsulfoxide (DMSO) and subsequently diluted in semi-logarithmic steps. DMSO dilutions are further diluted 1:100 into Dulbecco's modified Eagle's medium (DMEM) containing 10% fetal calf serum to a final concentration twice as much as the final concentration in the test. RKO subclones are seeded into 96 well flat bottom plates at a density of 4000 cells per well in a volume of 50 µl per well. 24 hours after seeding the 50 μl each of the compound dilutions in DMEM medium are added into each well of the 96 Well plate. Each compound dilution is tested as quadruplicates. Wells containing untreated control cells are filled with 50 μl DMEM medium containing 1% DMSO. The cells are then incubated with the substances for 72 hours at 37° C. in a humidified atmosphere containing 5% carbon dioxide. To determine the viability of the cells, 10 μl of an Alamar Blue solution (Biosource) are added and the fluorescence is measured at an extinction of 544 nm and an emission of 590 nm. For the calculation of the cell viability the emission value from untreated cells is set as 100% viability and the emission rates of treated cells are set in relation to the values of untreated cells. Viabilities are expressed as % values.
The corresponding IC50 values of the compounds for anti-proliferative/cytotoxic activity are determined from the concentration-effect curves.
Representative IC50 values for anti-proliferation/cytotoxicity determined for the compounds mentioned and numbered as Examples in the examples above follow from the following table A (1st column), in which the numbers of the compound correspond to the numbers of the examples. Any or all of the compounds according to the present invention which are listed in the Table A, as well as their salts, are to be mentioned as a particular interesting subject of the present invention.

[2] = system: RKO colon adenocarcinoma cells (RKOp27) arrested by expression of ectopic p27Kip1; assay: Alamar Blue cell viability assay, cell cycle specific mode of action, RKO p27 induced (arrested by Ponasterone A-induced p27Kip1); format: cell-based; details: Homo sapiens, RKOp27, 72 h, cells arrested by p27Kip1 induced with 10 μM Ponasterone A, 72 hours incubation
Procedure: To determine the cell cycle specific mode of action, subdlones of RKO colon adenocarcinoma cells (RKOp27 or RKOp21 as described by Schmidt et al. in Oncogene 19, 2423-2429; 2000) are seeded into 96 well flat bottom plates at a density of 16000 cells per well in a volume of 50 μl per well in DMEM growth medium with 10% FCS containing 10 μM Ponasterone A. 24 hours after seeding the 50 μl each of the compound dilutions in DMEM medium are added into each well of the 96 Well plate. Each compound dilution is tested as quadruplicates. Wells containing untreated control cells are filled with 50 μl DMEM medium containing 1% DMSO. The cells are then incubated with the substances for 72 hours at 37° C. in a humidified atmosphere containing 5% carbon dioxide. To determine the viability of the cells, 10 μl of an Alamar Blue solution (Biosource) are added and the fluorescence was measured at an extinction of 544 nm and an emission of 590 nm. For the calculation of the cell viability the emission value from untreated cells is set as 100% viability and the emission rates of treated cells are set in relation to the values of untreated cells. Viabilities are expressed as % values. Viability is compared of proliferating cells grown in the absence of the inducer Ponasterone A, versus viability of cells arrested by the expression of ectopic p27Kip1 induced by Ponasterone A. The data of this experimental setting are summarized in table A (2nd column).

| Compound | IC50 [2] [µM] | IC50 [1] [µM] |
| --- | --- | --- |
| CN(C)C(=O)CCC(=O)N1CCc2c(sc(NC(=O)c3ccccc3)c2C#N)C1 [Compound 83, N-[3-Cyano-6-(3-dimethylcarbamoyl-propanoyl)-4,5,6,7-tetrahydro-thieno[2,3-c]pyridin-2-yl]-benzamide] | > 100 | ≤ 3 |
| N#Cc1c(NC(=O)c2ccccc2)sc2c1CCN(C(=O)OCCO)C2 [Compound 97, 3-Cyano-2-[(1-phenyl-methanoyl)-amino]-4,7-dihydro-5H-thieno[2,3-c]pyridine-6-carboxylic acid 2-hydroxy-ethyl ester] | > 100 | ≤ 3 |
| COC(=O)COC(=O)N1CCc2c(sc(NC(=O)c3ccccc3)c2C#N)C1 [Compound 93, 3-Cyano-2-[(1-phenyl-methanoyl)-amino]-4,7-dihydro-5H-thieno[2,3-c]pyridine-6-carboxylic acid methoxycarbonylmethyl ester] | > 100 | ≤ 3 |
| CC(=O)OCCCC(=O)N1CCc2c(sc(NC(=O)c3ccccc3)c2C#N)C1 [Compound 86, Acetic acid 4-{3-cyano-2-[(1-phenyl-methanoyl)-amino]4,7-dihydro-5H-thieno[2,3-c]pyridin-6-yl}-4-oxo-butyl ester] | > 100 | ≤ 3 |
| CCCCCSC(=O)N1CCc2c(sc(NC(=O)c3ccccc3)c2C#N)C1 [Compound 101, 3-Cyano-2-[(1-phenyl-methanoyl)-amino]-4,7-dihydro-5H-thieno[2,3-c]pyridine6-carbothioic acid S-pentyl ester] | > 100 | ≤ 3 |
| CCOC(=O)N1CCc2c(sc(NC(=O)c3cc(OC)cc(OC)c3)c2C#N)C1 [Compound 19, N-(6-Ethoxycarbonyl-3-cyano-4,5,6,7-tetrahydro-thieno[2,3-c]pyridin-2-yl)-3,5-dimethoxybenzamide] | > 100 | ≤ 2 |
| CC(=O)CCC(=O)N1CCc2c(sc(NC(=O)c3ccccc3)c2C#N)C1 [Compound 27, N-[3-Cyano-6-(4-oxo-pentanoyl)-4,5,6,7-tetrahydro-thieno[2,3-c]pyridin-2-yl]-benzamide] | > 100 | ≤ 2 |
| CCOC(=O)N1CCc2c(sc(NC(=O)c3ccc(C)cc3)c2C#N)C1 [Compound 50, 3-Cyano-2-[(1-p-tolyl-methanoyl)-amino]-4,7-dihydro-5H-thieno[2,3-c]pyridine-6-carboxylic acid ethyl ester] | > 60 | ≤ 3 |
| CC(C)(C)OC(=O)N1CCc2c(sc(NC(=O)c3ccccc3)c2C#N)C1 [Compound 1, N-(6-tert.-Butyloxycarbonyl-3-cyano-4,5,6,7-tetrahydro-thieno[2,3-c]pyridin-2-yl)-benzamide] | > 100 | ≤ 2 |
| COC(=O)N1CCc2c(sc(NC(=O)c3ccccc3)c2C#N)C1 [Compound 54, 3-Cyano-2-[(1-phenyl-methanoyl)-amino]-4,7-dihydro-5H-thieno[2,3-c]pyridine-6-carboxylic acid methyl ester] | > 60 | ≤ 3 |
| N#Cc1c(NC(=O)c2ccccc2)sc2c1CCN(C(=O)OCc1cccnc1)C2 [Compound 63, 3-Cyano-2-[(1-phenyl-methanoyl)-amino]-4,7-dihydro-5H-thieno[2,3-c]pyridine-6carboxylic acid pyridin-3-ylmethyl ester] | > 60 | ≤ 3 |
| N#Cc1c(NC(=O)c2ccccc2)sc2c1CCN(C(=O)CCc1c[nH]c3ccccc13)C2 [Compound 30, N-[3-Cyano-6-(3-1H-indol-3-yl-propanoyl)-4,5,6,7-tetrahydro-thieno[2,3-c]pyridin-2-yl]-benzamide] | > 60 | ≤ 3 |
| CCOC(=O)N1CCc2c(sc(NC(=O)c3ccccc3)c2C#N)C1 [Compound 18, N-(6-Ethoxycarbonyl-3-cyano-4,5,6,7-tetrahydro-thieno[2,3-c]pyridin-2-yl)-benzamide] | > 100 | ≤ 2 |
| COCCOCCOC(=O)N1CCc2c(sc(NC(=O)c3ccccc3)c2C#N)C1 [Compound 75, 3-Cyano-2-[(1-phenyl-methanoyl)amino]-4,7-dihydro-5H-thieno[2,3-c]pyridine-6-carboxylic acid 2-(2-methoxy-ethoxy)-ethyl ester] | > 60 | ≤ 3 |
| CCSC(=O)N1CCc2c(sc(NC(=O)c3ccccc3)c2C#N)C1 [Compound 29, N-(3-Cyano-7-(ethylthiocarbonyl)-4,5,6,7-tetrahvdro-thieno[2,3-c]pyridin-2-yl)-benzamide] | > 100 | ≤ 2 |

More lines, main results first:

| IC50 [2] [µM] | Compound | IC50 [1] [µM] |
| --- | --- | --- |
| > 60 | COCCOCC(=O)N1CCc2c(sc(NC(=O)c3ccccc3)c2C#N)C1 [Compound 40] | ≤ 3 |
| > 60 | CCOC(=O)N1CCc2c(sc(NC(=O)c3cccc(C)c3)c2C#N)C1 [Compound 51, 3-Cyano-2-[(1-m-tolyl-methanoyl)-amino]-4,7-dihydro-5H-thieno[2,3-c]pyridine-6-carboxylic acid ethyl ester] | ≤ 3 |
| > 60 | N#Cc1c(NC(=O)c2ccccc2)sc2c1CCN(C(=O)CCn1cnnc1)C2 [Compound 34, N-[3-Cyano-6-(3-[1,2,4]triazol-4-yl-propanoyl)-4,5,6,7-tetrahvdro-thieno[2,3-c]pyridin-2-yl]-benzamide] | ≤ 3 |
| > 60 | COc1ccc(OC(=O)N2CCc3c(sc(NC(=O)c4ccccc4)c3C#N)C2)cc1 [Compound 60, 3-Cyano-2-[(1-phenyl-methanoyl)-amino]-4,7-dihydro-5H-thieno[2,3-c]pyridine-6-carboxylic acid 4-methoxy-phenyl ester] | ≤ 3 |
| > 60 | N#Cc1c(NC(=O)c2ccccc2)sc2c1CCN(C(=O)CCc1nccs1)C2 [Compound 33, N-[3-Cyano-6-(3thiazol-2-yl-propanoyl)-4,5,6,7-tetrahydro-thieno[2,3-c]pyridin-2-yl]-benzamide] | ≤ 3 |
| > 60 | CCOC(=O)N1CCc2c(sc(NC(=O)c3cccc([N+](=O)[O-])c3)c2C#N)C1 [Compound 45, 3-Cyano-2{[1-(3-nitro-phenyl)-methanoyl]-amino}-4,7-dihydro-5H-thieno[2,3-c]pyridine-6-carboxylic acid ethyl ester] | ≤ 3 |
| > 60 | CCOC(=O)N1CCc2c(sc(NC(=O)c3cccc(Cl)c3)c2C#N)C1 [Compound 48, 2-{[1-(3-Chloro-phenyl)-methanoyl]-amino}-3-cyano-4,7-dihydro-5H-thieno[2,3-c]pyridine-6-carboxylic acid ethyl ester] | ≤ 3 |
| > 60 | N#Cc1c(NC(=O)c2ccccc2)sc2c1CCN(C(=O)CCc1cccnc1)C2 [Compound 41, N-[3-Cyano-6-(3-pyridin-3-yl-propanoyl)-4,5,6,7-tetrahydro-thieno[2,3-c]pyridin-2-yl]-benzamide] | ≤ 3 |
| > 60 | N#Cc1c(NC(=O)c2ccccc2)sc2c1CCN(C(=O)NCCc1ccncc1)C2 [Compound 80, 3-Cyano-2-[(1-phenyl-methanoyl)-amino]-4,7-dihydro-5H-thieno[2,3-c]pyridine-6-carboxylic acid (2-pyridin-4-yl-ethyl)-amide] | ≤ 3 |
| > 60 | COc1ccc(S(=O)(=O)N2CCc3c(sc(NC(=O)c4ccccc4)c3C#N)C2)cc1 [Compound 79, N-[3-Cyano-6-(4-methoxy-benzenesulfonyl)-4,5,6,7-tetrahydro-thieno[2,3-c]pyridin-2-yl]-benzamide] | ≤ 3 |
| > 60 | N#Cc1c(NC(=O)c2ccccc2)sc2c1CCN(C(=O)Cc1ccccn1)C2 [Compound 42, N-[3-Cyano-6-(2-pyridin-2-yl-ethanoyl)-4,5,7-tetrahydro-thieno[2,3-c]pyridin-2-yl]-benzamide] | ≤ 3 |
